According to paper PMC8037182, “Solvothermal Synthesis of Multiple Dihydropyrimidinones at a Time as Inhibitors of Eg5” (Molecules, 2021):

Assays:
[1] = tested on: L929 cell line; assay: Cytotoxicity MTS assay, L929 cell line; assay type: cell-based; conditions: for OD490 values, Mean / OD490 values, Well 1 / OD490 values, Well 2 / OD490 values, Well 3: L929 cell line; for IC50: MTS assay, 24 h exposure, ordinary fibroblast, not cancer cells
Outline: (§1)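 Growth inhibition is measured by MTS conversion, read as absorbance at 490 nm after 2 h at 37 °C. Compounds act on cells seeded at 1000/well for 24 h across 0.5–100 µM final. Data derive from three independent duplicate experiments.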

[2] = tested on: T24 cell line; assay: Cytotoxicity MTS assay, T24 cell line; assay type: cell-based; conditions: for IC50: MTS assay, 24 h exposure; for OD490 Mean / OD490 Well 1 / OD490 Well 2 / OD490 Well 3: T24 cell line, first assay;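 as to OD490 Mean: blank control wells received 0.025% DMSO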;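 as to OD490 Well 1: blank control wells received 0.025% DMSO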;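 as to OD490 Well 2: blank control wells received 0.025% DMSO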;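 as to OD490 Well 3: blank control wells received 0.025% DMSO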
Outline: as §1

With CCOC(=O)c1c(C2NC(=O)NC(C)=C2C(=O)Nc2ccccc2)[nH]c(C(=O)OC)c1C (stereo not shown) [D10] the “OD490 values, Mean” value ([1]; 0.5μM, first assay) was 1.1783, the “OD490 values, Well 1” value ([1]; 0.5μM, first assay) was 1.1608 and the “OD490 values, Well 2” value ([1]; 0.5μM, first assay) was 1.2289. For the same compound, the “OD490 values, Well 3” value ([1]; 0.5μM, first assay) was 1.1452, the “OD490 values, Mean” value ([1]; 1μM, first assay) was 1.1453 and the “OD490 values, Well 1” value ([1]; 1μM, first assay) was 1.2474. For the same compound, the “OD490 values, Well 2” value ([1]; 1μM, first assay) was 1.0902, the “OD490 values, Well 3” value ([1]; 1μM, first assay) was 1.0983 and the “OD490 values, Mean” value ([1]; 10μM, first assay) was 1.1621. The “OD490 values, Well 1” value ([1]; 10μM, first assay) was 1.1874, the “OD490 values, Well 2” value ([1]; 10μM, first assay) was 1.1922 and the “OD490 values, Well 3” value ([1]; 10μM, first assay) was 1.1066. For the same compound, the “OD490 values, Mean” value ([1]; 25μM, first assay) was 1.1923, the “OD490 values, Well 1” value ([1]; 25μM, first assay) was 1.1856 and the “OD490 values, Well 2” value ([1]; 25μM, first assay) was 1.2091. For the same compound, the “OD490 values, Well 3” value ([1]; 25μM, first assay) was 1.1822, the “OD490 values, Mean” value ([1]; 50μM, first assay) was 1.0704 and the “OD490 values, Well 1” value ([1]; 50μM, first assay) was 0.9680. The “OD490 values, Well 2” value ([1]; 50μM, first assay) was 1.0467, the “OD490 values, Well 3” value ([1]; 50μM, first assay) was 1.1965 and the “OD490 values, Mean” value ([1]; 100μM, first assay) was 0.9201. The “OD490 values, Well 1” value ([1]; 100μM, first assay) was 0.8725, the “OD490 values, Well 2” value ([1]; 100μM, first assay) was 0.9125 and the “OD490 values, Well 3” value ([1]; 100μM, first assay) was 0.9752. For the same compound, the IC50 [1] was greater than 150 µM, the IC50 [2] was greater than 150 µM and the “OD490 Mean” value ([2]; 0.5μM) was 1.3759. For the same compound, the “OD490 Well 1” value ([2]; 0.5μM) was 1.3871, the “OD490 Well 2” value ([2]; 0.5μM) was 1.3651 and the “OD490 Well 3” value ([2]; 0.5μM) was 1.3756. The “OD490 Mean” value ([2]; 1μM) was 1.3764, the “OD490 Well 1” value ([2]; 1μM) was 1.2835 and the “OD490 Well 2” value ([2]; 1μM) was 1.4515. The “OD490 Well 3” value ([2]; 1μM) was 1.3943, the “OD490 Mean” value ([2]; 10μM) was 1.4610 and the “OD490 Well 1” value ([2]; 10μM) was 1.3272. For the same compound, the “OD490 Well 2” value ([2]; 10μM) was 1.6117, the “OD490 Well 3” value ([2]; 10μM) was 1.4442 and the “OD490 Mean” value ([2]; 25μM) was 1.4209. The “OD490 Well 1” value ([2]; 25μM) was 1.3594, the “OD490 Well 2” value ([2]; 25μM) was 1.6346 and the “OD490 Well 3” value ([2]; 25μM) was 1.2686. For the same compound, the “OD490 Mean” value ([2]; 50μM) was 1.2169, the “OD490 Well 1” value ([2]; 50μM) was 1.1849 and the “OD490 Well 2” value ([2]; 50μM) was 1.3216. For the same compound, the “OD490 Well 3” value ([2]; 50μM) was 1.1441, the “OD490 Mean” value ([2]; 100μM) was 1.1356 and the “OD490 Well 1” value ([2]; 100μM) was 1.2013. The “OD490 Well 2” value ([2]; 100μM) was 1.0672 and the “OD490 Well 3” value ([2]; 100μM) was 1.1383.

For CCOC(=O)c1[nH]c(C2NC(=S)NC(C)=C2C(=O)OC)c(C(=O)OCC)c1C (stereo not shown) [D12], the “OD490 values, Mean” value ([1]; 0.5μM, first assay) was 1.1913, the “OD490 values, Well 1” value ([1]; 0.5μM, first assay) was 1.1038 and the “OD490 values, Well 2” value ([1]; 0.5μM, first assay) was 1.2202. The “OD490 values, Well 3” value ([1]; 0.5μM, first assay) was 1.2500, the “OD490 values, Mean” value ([1]; 0.5μM, second assay) was 1.4730 and the “OD490 values, Well 1” value ([1]; 0.5μM, second assay) was 1.5380. The “OD490 values, Well 2” value ([1]; 0.5μM, second assay) was 1.4321, the “OD490 values, Well 3” value ([1]; 0.5μM, second assay) was 1.4489 and the “OD490 values, Mean” value ([1]; 0.5μM, third assay) was 1.5772. The “OD490 values, Well 1” value ([1]; 0.5μM, third assay) was 1.5471, the “OD490 values, Well 2” value ([1]; 0.5μM, third assay) was 1.5630 and the “OD490 values, Well 3” value ([1]; 0.5μM, third assay) was 1.6214. For the same compound, the “OD490 values, Mean” value ([1]; 1μM, first assay) was 1.1860, the “OD490 values, Well 1” value ([1]; 1μM, first assay) was 1.2156 and the “OD490 values, Well 2” value ([1]; 1μM, first assay) was 1.2049. For the same compound, the “OD490 values, Well 3” value ([1]; 1μM, first assay) was 1.1374, the “OD490 values, Mean” value ([1]; 1μM, second assay) was 1.4734 and the “OD490 values, Well 1” value ([1]; 1μM, second assay) was 1.5248. The “OD490 values, Well 2” value ([1]; 1μM, second assay) was 1.4852, the “OD490 values, Well 3” value ([1]; 1μM, second assay) was 1.4101 and the “OD490 values, Mean” value ([1]; 1μM, third assay) was 1.5596. For the same compound, the “OD490 values, Well 1” value ([1]; 1μM, third assay) was 1.5474, the “OD490 values, Well 2” value ([1]; 1μM, third assay) was 1.5836 and the “OD490 values, Well 3” value ([1]; 1μM, third assay) was 1.5478. For the same compound, the “OD490 values, Mean” value ([1]; 10μM, first assay) was 1.1924, the “OD490 values, Well 1” value ([1]; 10μM, first assay) was 1.2175 and the “OD490 values, Well 2” value ([1]; 10μM, first assay) was 1.1577. The “OD490 values, Well 3” value ([1]; 10μM, first assay) was 1.2021, the “OD490 values, Mean” value ([1]; 10μM, second assay) was 1.4056 and the “OD490 values, Well 1” value ([1]; 10μM, second assay) was 1.3665. For the same compound, the “OD490 values, Well 2” value ([1]; 10μM, second assay) was 1.4252, the “OD490 values, Well 3” value ([1]; 10μM, second assay) was 1.4252 and the “OD490 values, Mean” value ([1]; 10μM, third assay) was 1.6223. The “OD490 values, Well 1” value ([1]; 10μM, third assay) was 1.6874, the “OD490 values, Well 2” value ([1]; 10μM, third assay) was 1.5874 and the “OD490 values, Well 3” value ([1]; 10μM, third assay) was 1.5922. For the same compound, the “OD490 values, Mean” value ([1]; 25μM, first assay) was 1.1330, the “OD490 values, Well 1” value ([1]; 25μM, first assay) was 1.1639 and the “OD490 values, Well 2” value ([1]; 25μM, first assay) was 1.1385. The “OD490 values, Well 3” value ([1]; 25μM, first assay) was 1.0965, the “OD490 values, Mean” value ([1]; 25μM, second assay) was 1.3592 and the “OD490 values, Well 1” value ([1]; 25μM, second assay) was 1.4632. The “OD490 values, Well 2” value ([1]; 25μM, second assay) was 1.2302, the “OD490 values, Well 3” value ([1]; 25μM, second assay) was 1.3841 and the “OD490 values, Mean” value ([1]; 25μM, third assay) was 1.5851. The “OD490 values, Well 1” value ([1]; 25μM, third assay) was 1.5924, the “OD490 values, Well 2” value ([1]; 25μM, third assay) was 1.5955 and the “OD490 values, Well 3” value ([1]; 25μM, third assay) was 1.5674. For the same compound, the “OD490 values, Mean” value ([1]; 50μM, first assay) was 1.0425, the “OD490 values, Well 1” value ([1]; 50μM, first assay) was 1.0133 and the “OD490 values, Well 2” value ([1]; 50μM, first assay) was 1.0567. For the same compound, the “OD490 values, Well 3” value ([1]; 50μM, first assay) was 1.0575, the “OD490 values, Mean” value ([1]; 50μM, second assay) was 1.2636 and the “OD490 values, Well 1” value ([1]; 50μM, second assay) was 1.2147. The “OD490 values, Well 2” value ([1]; 50μM, second assay) was 1.2548, the “OD490 values, Well 3” value ([1]; 50μM, second assay) was 1.3214 and the “OD490 values, Mean” value ([1]; 50μM, third assay) was 1.3874. The “OD490 values, Well 1” value ([1]; 50μM, third assay) was 1.3352, the “OD490 values, Well 2” value ([1]; 50μM, third assay) was 1.3582 and the “OD490 values, Well 3” value ([1]; 50μM, third assay) was 1.4687. The “OD490 values, Mean” value ([1]; 100μM, first assay) was 0.9106, the “OD490 values, Well 1” value ([1]; 100μM, first assay) was 0.8752 and the “OD490 values, Well 2” value ([1]; 100μM, first assay) was 0.9980. The “OD490 values, Well 3” value ([1]; 100μM, first assay) was 0.8587, the “OD490 values, Mean” value ([1]; 100μM, second assay) was 1.0255 and the “OD490 values, Well 1” value ([1]; 100μM, second assay) was 0.9632. For the same compound, the “OD490 values, Well 2” value ([1]; 100μM, second assay) was 1.0012, the “OD490 values, Well 3” value ([1]; 100μM, second assay) was 1.1122 and the “OD490 values, Mean” value ([1]; 100μM, third assay) was 1.3052. For the same compound, the “OD490 values, Well 1” value ([1]; 100μM, third assay) was 1.3254, the “OD490 values, Well 2” value ([1]; 100μM, third assay) was 1.2547 and the “OD490 values, Well 3” value ([1]; 100μM, third assay) was 1.3354. For the same compound, the IC50 [1] was 121 µM, the IC50 [2] was greater than 150 µM and the “OD490 Mean” value ([2]; 0.5μM) was 1.1142. The “OD490 Well 1” value ([2]; 0.5μM) was 1.0855, the “OD490 Well 2” value ([2]; 0.5μM) was 0.8354 and the “OD490 Well 3” value ([2]; 0.5μM) was 1.4216. For the same compound, the “OD490 Mean” value ([2]; 1μM) was 1.1490, the “OD490 Well 1” value ([2]; 1μM) was 1.1324 and the “OD490 Well 2” value ([2]; 1μM) was 1.1847. For the same compound, the “OD490 Well 3” value ([2]; 1μM) was 1.1298, the “OD490 Mean” value ([2]; 10μM) was 1.2900 and the “OD490 Well 1” value ([2]; 10μM) was 1.3295. For the same compound, the “OD490 Well 2” value ([2]; 10μM) was 1.2196, the “OD490 Well 3” value ([2]; 10μM) was 1.3210 and the “OD490 Mean” value ([2]; 25μM) was 1.3787. The “OD490 Well 1” value ([2]; 25μM) was 1.3758, the “OD490 Well 2” value ([2]; 25μM) was 1.4030 and the “OD490 Well 3” value ([2]; 25μM) was 1.3572. For the same compound, the “OD490 Mean” value ([2]; 50μM) was 1.3058, the “OD490 Well 1” value ([2]; 50μM) was 1.3832 and the “OD490 Well 2” value ([2]; 50μM) was 1.3204. The “OD490 Well 3” value ([2]; 50μM) was 1.2137, the “OD490 Mean” value ([2]; 100μM) was 1.2394 and the “OD490 Well 1” value ([2]; 100μM) was 1.3664. For the same compound, the “OD490 Well 2” value ([2]; 100μM) was 1.1849 and the “OD490 Well 3” value ([2]; 100μM) was 1.1670.
